In PMC7939532 (Oncotarget, 2021):
Several values for one entry are separate records, joined by “and”; a condition that tells them apart may be missing. Equal values may be shown once. Read-outs that look alike come from different tables or passages of the source. Square brackets hold non-standard residues; d marks the D form. Primed or numbered codes have the meaning given here. Ends that are not written are not given here. Peptide text beside a SMILES is read from it. * marks the point of attachment. d1Nal = N[C@H](Cc1cccc2ccccc12)C(=O)O; Palmitoyl = CCCCCCCCCCCCCCCC(=O)*; PEG2′ = not defined here

Experiments:
Ghrelin receptor [1] = target: T1, Ghrelin receptor (Homo sapiens, UniProt Q92847); assay: Inositol phosphate turnover assay in COS-7 cells transfected with the Ghrelin receptor; conditions: for x-fold over No. 2: EC50 relative to peptide 2; for Δeff (%): efficacy, mean ± SEM of |Efficacymax - Efficacymin|
T1 sequence (Q92847 whole entry, species assumed): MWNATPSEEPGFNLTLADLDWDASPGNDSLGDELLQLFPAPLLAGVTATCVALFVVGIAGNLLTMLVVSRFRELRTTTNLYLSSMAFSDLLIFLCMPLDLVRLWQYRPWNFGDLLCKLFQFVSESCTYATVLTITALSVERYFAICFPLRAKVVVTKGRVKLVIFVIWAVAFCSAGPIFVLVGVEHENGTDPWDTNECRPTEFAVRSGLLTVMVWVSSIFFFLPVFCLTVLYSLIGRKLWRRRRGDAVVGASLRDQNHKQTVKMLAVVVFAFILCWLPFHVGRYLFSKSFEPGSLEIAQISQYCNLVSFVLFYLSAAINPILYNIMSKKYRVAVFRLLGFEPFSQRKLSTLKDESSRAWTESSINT
Method: Data were analyzed with GraphPad Prism 6.0 program (GraphPad Software, San Diego, CA, USA). EC50, pEC50 and Emax values were obtained from concentration–response curves. All signal transduction assays were performed in duplicate and repeated at least two times independently.

Ghrelin receptor [2] = target: T1, Ghrelin receptor; assay: Competitive binding assay with ^125I-His-Ghrelin in COS-7 cells stably transfected with the Ghrelin receptor; parameters: expressed in transfected cells; host or cells: COS-7; conditions: for x-fold over Ghrelin: Ki relative to Ghrelin; for x-fold over 2: Ki relative to peptide 2; for Ki: competition with ^125I-His-Ghrelin, read-out: Ki ± SD
Method: Each experiment was performed in triplicates. IC50 values of the binding curves were calculated by nonlinear regression on a sigmoidal dose-response based model by using program GraphPad Prism 6.0. Ki values were calculated by Cheng-Prusoff equation.

[3] = rat, in vivo
Method: Biodistribution in distinct organs and tissues of healthy rats was measured at 5 and 60 min after single intravenous injection of the ^68Ga- or ^64Cu-radiotracers 9b-c, 10b-c, and 15b-c in rats (see ^68Ga-tracers in Figure 3 and ^64Cu-tracers in Figure 4).
The molar activity was approximately 30 GBq × mmol^–1 at the time of injection (Table 3). […] Animals were sacrificed at 5 and 60 min post injection. Blood and the major organs were collected, weighed, and counted in a Wallac WIZARD automatic gamma counter (PerkinElmer, Germany). The radioactivity of the samples was decay-corrected and calibrated by comparing the counts in tissue with the counts in aliquots of the injected radiotracer that had been measured in the gamma counter at the same time. The activity amount in organs that could be completely extracted was expressed as percent of injected dose (% ID). The activity concentrations in tissues were calculated as standardized uptake values [SUV = (activity × mL^–1 tissue)/(injected activity/body weight), mL × g^–1)]. The SUV was used for better comparison within animals of different size and weight and with other species and to compare the biodistribution and the PET data.

DU-145 tumors [4] = assay: Biodistribution of 10c in DU-145 tumor bearing mice with blocking; assay type: in vivo; conditions: one hour after injection
Method: (§1) The tumor mice with xenotransplanted PC-3 or DU-145 tumors were used when the tumors reached 0.54 ± 0.34 g or 0.18 ± 0.09 g (mean ± SD, n = 9), respectively. […] The mice were sacrificed one hour after injection and the organs and tissues were extracted. The activity measurements and calculations were carried out as described for the rat biodistribution experiments.

PC-3 tumors [5] = test system: PC-3 tumors; parameters: species or system mice; conditions: mouse, in vivo
Method: (§2) Anesthetized, spontaneously breathing animals were allowed to stabilize for 10 min after preparation. The animals were positioned on a heated bed to maintain the body temperature at 37°C. The PET studies were carried out with a NanoScanPET/CT (Mediso, Hungary) or a microPET P4® (Siemens preclinical solutions, Knoxville, TN, USA). The activity of the injection solution was measured in a well counter (Isomed 2000, Dresden, Germany) cross-calibrated to the PET scanners. A 10 min transmission scan was recorded during this time for each subject by using a rotating point source of ^57Co (microPET). The transmission scans were used to correct the emission scan for γ-ray attenuation caused by body tissues and supporting structures; it was also used to demarcate the body field for image registration. […] At the end of the experiment, the animals were deeply anesthetized and sacrificed by an intravenous injection of potassium chloride. Acquisition was performed in 3D list mode. Emission data were collected continuously. The list mode data were sorted into sinograms with 32 or 38 frames (15 × 10 s, 5 × 30 s, 5 × 60 s, 4 × 300 s, 3 × 600 s, or 9 × 600 s). The data were decay-, scatter-, and attenuation-corrected. The frames from the microPET were reconstructed by Ordered Subset Expectation Maximization applied to 3D sinograms (OSEM3D) with 14 subsets, 15 OSEM3D iterations, 25 maximum a posteriori (MAP) iterations, and 1.8 mm resolution using the […] algorithm (Siemens Preclinical Solutions, Knoxville, TN, USA). The voxel size was 0.07 by 0.07 by 0.12 cm. The PET images measured with the nanoScanPET/CT were reconstructed using a three-dimensional Ordered Subsets Expectation Maximization (3D-OSEM) algorithm (Tera-Tomo, Mediso Ltd., Hungary) into dynamic frames as described and with a voxel size of 0.05 cm. No correction for partial volume effects was applied. The image volume data were converted to Siemens ECAT7 format for further processing and were then analyzed using the ROVER software (ABX GmbH, Radeberg, Germany). Masks for defining three-dimensional regions of interest (ROI) were set and the ROI's were defined by thresholding and ROI time activity curves (TAC) were derived for the subsequent data analysis. […] The ROIs were so determined that no surrounding tissue was included. The ROI data and TAC were further analyzed using R (R is available as Free Software under the terms of the Free Software Foundation's GNU General Public License in source code form) and especially developed program packages (Jörg van den Hoff, Frank Hofheinz, Helmholtz-Zentrum Dresden-Rossendorf, Dresden, Germany).

DU-145 tumors [6] = test system: DU-145 tumors; parameters: species or system mice; conditions: mouse, in vivo
Method: as §2

[7] = parameters: species or system rats; conditions: rat, in vivo
[8] = parameters: species or system mice; conditions: mouse, in vivo
Method: as §1

PC-3 tumors [9] = assay: Biodistribution of 10c in PC-3 tumor bearing mice with blocking; assay type: in vivo; conditions: one hour after injection
Method: as §1

[10] = COS-7 cells transfected with the Ghrelin receptor
[11] = inverse agonist potency, COS-7 cells transfected with the Ghrelin receptor
[12] = EC50, inverse agonist potency, COS-7 cells transfected with the Ghrelin receptor
[13] = pEC50 ± SEM, COS-7 cells transfected with the Ghrelin receptor

Row | Compound | pEC50 ± SEM (Ghrelin receptor [1]; [10]) | EC50 (Ghrelin receptor [1]; [11]) | x-fold over No. 2 (Ghrelin receptor [1]) | Δeff (%) (Ghrelin receptor [1]) | also measured
1 | [^natGa]Ga-NODAGA-KK-(D-1-Nal)-FwLK(Palm)-NH2 [15a] | 7.8 ± 0.05 | 0.0165 µM | 4 | 89 ± 3% | x-fold over Ghrelin (Ghrelin receptor [2]): 21; x-fold over 2 (Ghrelin receptor [2]): 2; Ki (Ghrelin receptor [2]): 0.011 ± 0.0043 µM
2 | K[^natGa]Ga-NODAGA-K-(D-1-Nal)-FwLK(Palm)-NH2 [16a] | 7.9 ± 0.07 | 0.0136 µM | 3 | 90 ± 4% | 
3 | [^64Cu]Cu-NODAGA-NH-K-K-(D-1-NaI)-F-w-L-L-NH2 [10c] |  |  |  |  | brain uptake [3]: 0.06-0.1 SUV; tumor to muscle ratio as percent of control (DU-145 tumors [4]; blocked with 1 mg/kg Ghrelin): 71.0 ± 10.7%; tumor to muscle ratio as percent of control (DU-145 tumors [4]; blocked with 1 mg/kg KKD): 59.7 ± 30.2%; activity concentration in tumor (PC-3 tumors [5]): 2.02 ± 0.28 SUV; activity concentration in tumor (PC-3 tumors [5]; 1 mg/kg): 0.99 ± 0.05 SUV; activity concentration in tumor (DU-145 tumors [6]): 1.34 ± 0.24 SUV; activity concentration in tumor (DU-145 tumors [6]; 1 mg/kg): 0.68 ± 0.05 SUV; original compound found in the kidneys [7]: 1%; original compound found in the liver [7]: 14%; original compound found in the urine [7]: 6%; specific tumor uptake relative to the compound of Charron et al. [8]: approximately 10 times; uptake in organs and tissues [8]: > 0.3 SUV; tumor to muscle ratio as percent of control (PC-3 tumors [9]; blocked with 1 mg/kg Ghrelin): 83.4 ± 18.4%; tumor to muscle ratio as percent of control (PC-3 tumors [9]; blocked with 1 mg/kg KKD): 51.2 ± 4.5%
4 | Palm-K[^natGa]Ga-NODAGA-K-(D-1-Nal)-FwLL-NH2 [13a] | 7.5 ± 0.06 | 0.0287 µM | 6 | 92% and 92 ± 3% | 
5 | [^natGa]Ga-NODAGA-K-(D-1-Nal)-FwLL-NH2 [9a] | 7.2 ± 0.10 | 0.0648 µM | 14 | 88% and 88 ± 8% | 
6 | PEG2-K[^natGa]Ga-NODAGA-K-(D-1-Nal)-FwLL-NH2 [14a] |  | > 1 µM | > 1000 |  | EC50 (Ghrelin receptor [1]; value given in the text): 1.8 ± 0.6 µM
7 | [^natGa]Ga-NODAGA-K(Palm)-K-(D-1-Nal)-FwLL-NH2 [12a] | 7.7 ± 0.06 | 0.0203 µM | 5 | 92% and 92 ± 4% | x-fold over Ghrelin (Ghrelin receptor [2]): 126; x-fold over 2 (Ghrelin receptor [2]): 14; Ki (Ghrelin receptor [2]): 0.0669 ± 0.0257 µM

Now from value to compound, other results behind:

Row | pEC50 ± SEM (Ghrelin receptor [1]; [10]) | EC50 (Ghrelin receptor [1]; [11]) | x-fold over No. 2 (Ghrelin receptor [1]) | Δeff (%) (Ghrelin receptor [1]) | Compound | also measured
8 | 6.8 ± 0.10 | 0.166 µM |  |  | K-(D-1-Nal)-FwLK(PEG2)-NH2 (K[d1Nal]F[dW]LK(PEG2′)-NH2) [compound 7] | 
9 |  |  |  | 63% and 63 ± 2% | CC(C)C[C@H](NC(=O)[C@H](CC(C)C)NC(=O)[C@@H](Cc1c[nH]c2ccccc12)NC(=O)[C@H](Cc1ccccc1)NC(=O)[C@@H](Cc1cccc2ccccc12)NC(=O)[C@H](CCCCN)NC(=O)[C@@H](N)CCCCN)C(N)=O [compound 4, KK-(D-1-Nal)-FwLL-NH2] (H-KK[d1Nal]F[dW]LL-NH2) | EC50 (Ghrelin receptor [1]; [12]): 0.013 µM; EC50 (Ghrelin receptor [1]; [13]): 0.0126 µM
10 |  |  |  | 42% and 42 ± 1% | CC(C)C[C@H](NC(=O)[C@@H](Cc1c[nH]c2ccccc12)NC(=O)[C@H](Cc1ccccc1)NC(=O)[C@@H](Cc1cccc2ccccc12)NC(=O)[C@@H](N)CCCCN)C(=O)N[C@@H](CCCCN)C(N)=O [compound 3, K-(D-1-Nal)-FwLK-NH2] (H-K[d1Nal]F[dW]LK-NH2) | EC50 (Ghrelin receptor [1]; [12]): 0.162 µM; EC50 (Ghrelin receptor [1]; [13]): 0.158 µM
11 | 6.3 ± 0.08 | 0.499 µM | 111 | 85 ± 3% | PEG2-KK-(D-1-Nal)-FwLL-NH2 [compound 8] | 
12 |  |  | 2 | 86 ± 2% | CCCCCCCCCCCCCCCC(=O)N[C@@H](CCCCN)C(=O)N[C@@H](CCCCN)C(=O)N[C@H](Cc1cccc2ccccc12)C(=O)N[C@@H](Cc1ccccc1)C(=O)N[C@H](Cc1c[nH]c2ccccc12)C(=O)N[C@@H](CC(C)C)C(=O)N[C@@H](CC(C)C)C(N)=O [compound 6, Palm-KK-(D-1-Nal)-FwLL-NH2] (Palmitoyl-KK[d1Nal]F[dW]LL-NH2) | EC50 (Ghrelin receptor [1]; [12]): 0.011 µM
13 |  |  | 37 | 61 ± 3% | K-(D-1-Nal)-FwLK(PEG2)-NH2 [compound 7] | 
14 |  |  |  | 85% and 85 ± 2% | CCCCCCCCCCCCCCCC(=O)NCCCC[C@H](NC(=O)[C@H](CC(C)C)NC(=O)[C@@H](Cc1c[nH]c2ccccc12)NC(=O)[C@H](Cc1ccccc1)NC(=O)[C@@H](Cc1cccc2ccccc12)NC(=O)[C@@H](N)CCCCN)C(N)=O [compound 5] (H-K[d1Nal]F[dW]LK(Palmitoyl)-NH2) | EC50 (Ghrelin receptor [1]; [12]): 0.0035 µM; EC50 (Ghrelin receptor [1]; [13]): 0.00316 µM
15 | 7.5 ± 0.07 | 0.0347 µM | 8 | 98% and 98 ± 4% | [^natGa]Ga-NODAGA-KK-(D-1-Nal)-FwLL-NH2 [10a] | x-fold over Ghrelin (Ghrelin receptor [2]): 57; x-fold over 2 (Ghrelin receptor [2]): 6; Ki (Ghrelin receptor [2]): 0.0303 ± 0.0075 µM
16 | 6.2 ± 0.10 | 0.592 µM | 132 | 85 ± 6% | Palm-KK-(D-1-Nal)-FwLK[^natGa]Ga-NODAGA-NH2 [17a] | 
17 | 6.6 ± 0.10 | 0.267 µM | 59 | 75 ± 6% | K(Palm)-K-(D-1-Nal)-FwLK[^natGa]Ga-NODAGA-NH2 [18a] | 
